{"source": "ChEMBL document CHEMBL1126966", "about": "“1,25,28-trihydroxyvitamin D2 up-regulates renal vitamin D receptor without causing hypercalcemia” (1993)", "key": {"Rattus norvegicus [1]": {"organism": "Rattus norvegicus", "assay": "Compound was tested for regulation of kidney VDR in rats", "format": "functional"}, "Rattus norvegicus [2]": {"organism": "Rattus norvegicus", "assay": "Compound was tested for increase in plasma calcium concentration in rats", "format": "functional, organism-based"}, "Rattus norvegicus [3]": {"organism": "Rattus norvegicus", "assay": "Compound was tested for its ability to stimulate intestinal calcium absorption relative to 1,25(OH)2D3 in rats at a dose of 100ng/rat, expressed as Ca (serosal) /Ca (mucosal)", "format": "functional"}, "Rattus norvegicus [4]": {"organism": "Rattus norvegicus", "assay": "Compound was tested for its ability to stimulate intestinal calcium absorption relative to 1,25(OH)2D3 in rats at a dose of 200ng/rat, expressed as Ca (serosal) /Ca (mucosal)", "format": "functional"}, "Rattus norvegicus [5]": {"organism": "Rattus norvegicus", "assay": "Compound was tested for its ability to stimulate intestinal calcium absorption relative to 1,25(OH)2D3 in rats at a dose of 25ng/rat, expressed as Ca (serosal) /Ca (mucosal)", "format": "functional"}, "Rattus norvegicus [6]": {"organism": "Rattus norvegicus", "assay": "Compound was tested for its ability to stimulate intestinal calcium absorption relative to 1,25(OH)2D3 in rats at a dose of 50ng/rat, expressed as Ca (serosal) /Ca (mucosal)", "format": "functional"}, "Rattus norvegicus [7]": {"organism": "Rattus norvegicus", "assay": "Compound was tested for its ability to stimulate bone calcium resorption in serum relative to 1,25(OH)2D3 in rats at a dose of 100 ng/rat", "format": "functional, organism-based"}, "Rattus norvegicus [8]": {"organism": "Rattus norvegicus", "assay": "Compound was tested for its ability to stimulate bone calcium resorption in serum relative to 1,25(OH)2D3 in rats at a dose of 200 ng/rat", "format": "functional, organism-based"}, "Rattus norvegicus [9]": {"organism": "Rattus norvegicus", "assay": "Compound was tested for its ability to stimulate bone calcium resorption in serum relative to 1,25(OH)2D3 in rats at a dose of 25 ng/rat", "format": "functional, organism-based"}, "Rattus norvegicus [10]": {"organism": "Rattus norvegicus", "assay": "Compound was tested for its ability to stimulate bone calcium resorption in serum relative to 1,25(OH)2D3 in rats at a dose of 50 ng/rat", "format": "functional, organism-based"}, "Rattus norvegicus [11]": {"organism": "Rattus norvegicus", "assay": "Compound was tested for its ability to stimulate bone calcium resorption in rats at a dose of 12.5 ng/rat", "format": "functional, organism-based"}}}
{"compound": "C=C1/C(=C\\C=C2/CCC[C@]3(C)[C@@H]([C@H](C)/C=C/[C@H](CO)C(C)(C)O)CC[C@@H]23)C[C@@H](O)C[C@@H]1O", "values": [{"measurement": "Kidney VDR", "setting": "Rattus norvegicus [1]", "result": "249 fM (mg of protein)-1"}, {"measurement": "Plasma Ca2+", "setting": "Rattus norvegicus [2]", "result": 10.5, "unit": "mg/dL"}, {"measurement": "Ratio", "setting": "Rattus norvegicus [3]", "result": 2.22}, {"measurement": "Ratio", "setting": "Rattus norvegicus [4]", "result": 3.21}, {"measurement": "Ratio", "setting": "Rattus norvegicus [5]", "result": 2.17}, {"measurement": "Ratio", "setting": "Rattus norvegicus [6]", "result": 2.08}, {"measurement": "Serum Ca2+", "setting": "Rattus norvegicus [7]", "result": 3.8, "unit": "mg/dL"}, {"measurement": "Serum Ca2+", "setting": "Rattus norvegicus [8]", "result": 4, "unit": "mg/dL"}, {"measurement": "Serum Ca2+", "setting": "Rattus norvegicus [9]", "result": 4.1, "unit": "mg/dL"}, {"measurement": "Serum Ca2+", "setting": "Rattus norvegicus [10]", "result": 4.2, "unit": "mg/dL"}]}
{"compound": "C=C1/C(=C\\C=C2/CCC[C@]3(C)[C@@H]([C@H](C)CCCC(C)(C)O)CC[C@@H]23)C[C@@H](O)C[C@@H]1O", "values": [{"measurement": "Plasma Ca2+", "setting": "Rattus norvegicus [2]", "result": 10.6, "unit": "mg/dL"}, {"measurement": "Serum Ca2+", "setting": "Rattus norvegicus [11]", "result": 4.6, "unit": "mg/dL"}]}
